# According to patent US10175228B2, “Method of using transmembrane channel-like protein 6 (TMC6) protein to identify substances affecting salty taste” (priority 2016, dated 2019):
# Target: T1, human TMC6 protein (Homo sapiens, UniProt Q7Z403)
# T1 construct: expressed in transfected cells; host or cells: CHO-K1
# T1 sequence (Q7Z403 1-805): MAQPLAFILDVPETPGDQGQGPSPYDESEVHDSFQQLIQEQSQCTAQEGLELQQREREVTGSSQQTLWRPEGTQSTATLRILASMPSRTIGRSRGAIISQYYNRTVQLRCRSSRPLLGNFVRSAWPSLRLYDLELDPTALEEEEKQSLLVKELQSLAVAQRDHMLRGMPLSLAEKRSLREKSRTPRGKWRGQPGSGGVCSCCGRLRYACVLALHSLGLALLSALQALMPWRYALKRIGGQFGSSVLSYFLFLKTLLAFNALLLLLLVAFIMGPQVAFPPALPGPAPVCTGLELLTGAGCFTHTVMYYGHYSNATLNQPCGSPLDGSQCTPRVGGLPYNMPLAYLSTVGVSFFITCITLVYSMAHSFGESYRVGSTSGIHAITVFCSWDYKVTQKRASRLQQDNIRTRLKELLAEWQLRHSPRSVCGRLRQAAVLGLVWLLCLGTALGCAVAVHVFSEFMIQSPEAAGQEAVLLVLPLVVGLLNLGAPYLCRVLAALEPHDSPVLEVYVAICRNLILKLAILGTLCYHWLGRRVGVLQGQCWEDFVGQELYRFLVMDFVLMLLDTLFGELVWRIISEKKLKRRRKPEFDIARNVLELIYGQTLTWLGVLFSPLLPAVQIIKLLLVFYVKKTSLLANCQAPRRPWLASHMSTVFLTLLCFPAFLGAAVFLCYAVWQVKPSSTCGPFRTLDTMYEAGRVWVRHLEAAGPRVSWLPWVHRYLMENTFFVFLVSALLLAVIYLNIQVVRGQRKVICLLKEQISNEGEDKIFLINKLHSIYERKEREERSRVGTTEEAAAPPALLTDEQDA
# Assay: Calcium imaging (YC2.60 FRET) of CHO-K1 cells expressing the human TMC6 gene
# Assay type: cell-based
# Settings: stimulation with high-concentration NaCl solution (135 mM NaCl)
# Procedure: After the cultivation, the culture broth was removed. A low-concentration NaCl solution (27 mM NaCl, 1 mM KCl, 0.4 mM CaCl2, 0.2 mM MgCl2, 2 mM Hepes (pH7.3), 1 mM NaHCO3, 2 mM glucose, 2 mM sodium pyruvate, and 112 mM NMDG-Cl) was added to the culture dish, incubation was carried out statically for 5 min, and then, stimulation and observation of cells were started. First, the low-concentration NaCl solution was perfused for approximately 80 sec, to provide a ground state. […] The stimulation with the ATP stimulation solution was carried out by dropping 600 μL of the ATP stimulation solution near cells to be measured on the culture dish with a pipet within 3 sec.
# Observation of the cells was carried out with a confocal laser microscope FV1200 (Olympus). […] Activation of the cells was measured using the intracellular calcium concentration as an index. The intracellular calcium concentration was measured by calcium imaging using YC2.60. YC2.60 is one of calcium-sensitive fluorescent proteins based on fluorescence resonance energy transfer (FRET). […] When calcium ions bind to YC2.60, FRET from CFP to YFP is induced, and thereby, CFP fluorescence is attenuated and YFP fluorescence is enhanced. That is, a higher intracellular calcium concentration provides a higher YFP/CFP value of a cell, which value represents the ratio of YFP fluorescence intensity with respect to CFP fluorescence intensity. […]
smiles,measurement,value
"[Cl-].[Na+] [NaCl, sodium chloride]","change of YFP/CFP value (intracellular calcium concentration, cell activation)",increase
